Results as given in PubChem BioAssay (NCI).
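GI50: concentration for 50% inhibition of growth. The concentration for full growth arrest is given as TGI.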

Assays:
Experiment in all cases: NCI tumour cell line growth inhibition, 384-well format
UO-31 renal = system: UO-31 renal
ACHN renal = system: ACHN renal
SW-620 colon = system: SW-620 colon
U251 glioblastoma = system: U251 glioblastoma
NCI/ADR-RES ovarian = system: NCI/ADR-RES ovarian
NCI-H522 lung = system: NCI-H522 lung
CAKI-1 renal = system: CAKI-1 renal
A498 renal = system: A498 renal
RPMI-8226 leukemia = system: RPMI-8226 leukemia
MALME-3M melanoma = system: MALME-3M melanoma
K-562 leukemia = system: K-562 leukemia
IGROV1 ovarian = system: IGROV1 ovarian
SK-OV-3 ovarian = system: SK-OV-3 ovarian
MOLT-4 leukemia = system: MOLT-4 leukemia
MDA-MB-468 breast = system: MDA-MB-468 breast
SN12C renal = system: SN12C renal
KM12 colon = system: KM12 colon
HS 578T breast = system: HS 578T breast
TK-10 renal = system: TK-10 renal
UACC-62 melanoma = system: UACC-62 melanoma
BT-549 breast = system: BT-549 breast
SK-MEL-28 melanoma = system: SK-MEL-28 melanoma
RXF 393 renal = system: RXF 393 renal
NCI-H226 lung = system: NCI-H226 lung
EKVX NSCLC = system: EKVX NSCLC
OVCAR-8 ovarian = system: OVCAR-8 ovarian
SK-MEL-2 melanoma = system: SK-MEL-2 melanoma
PC-3 prostate = system: PC-3 prostate
M14 melanoma = system: M14 melanoma
HOP-92 NSCLC = system: HOP-92 NSCLC
OVCAR-4 ovarian = system: OVCAR-4 ovarian
T-47D breast = system: T-47D breast
HCT-116 colon = system: HCT-116 colon
NCI-H23 lung = system: NCI-H23 lung
HL-60(TB) leukemia = system: HL-60(TB) leukemia
NCI-H322M lung = system: NCI-H322M lung
LOX IMVI melanoma = system: LOX IMVI melanoma
MDA-MB-435 melanoma = system: MDA-MB-435 melanoma
786-0 renal = system: 786-0 renal
DU-145 prostate = system: DU-145 prostate
HCT-15 colon = system: HCT-15 colon
OVCAR-3 ovarian = system: OVCAR-3 ovarian
UACC-257 melanoma = system: UACC-257 melanoma
MCF7 breast = system: MCF7 breast
HT29 colon = system: HT29 colon
MDA-MB-231 breast = system: MDA-MB-231 breast
OVCAR-5 ovarian = system: OVCAR-5 ovarian
HOP-62 NSCLC = system: HOP-62 NSCLC
A549 NSCLC = system: A549 NSCLC

Compound: CC/C(=C(\c1ccccc1)c1ccc(OCCN(C)C)cc1)c1ccccc1
- GI50 (UO-31 renal): 14.9 µM
- TGI (UO-31 renal): 28.4 µM
- GI50 (ACHN renal): 16.4 µM
- TGI (ACHN renal): 30.3 µM
- GI50 (SW-620 colon): 9.21 µM
- TGI (SW-620 colon): 21.6 µM
- GI50 (U251 glioblastoma): 5.21 µM
- TGI (U251 glioblastoma): 16.2 µM
- GI50 (NCI/ADR-RES ovarian): 12 µM
- TGI (NCI/ADR-RES ovarian): 24.6 µM
- GI50 (NCI-H522 lung): 11.4 µM
- TGI (NCI-H522 lung): 23.7 µM
- GI50 (CAKI-1 renal): 8.23 µM
- TGI (CAKI-1 renal): 20.8 µM
- GI50 (A498 renal): 4.05 µM
- TGI (A498 renal): 15 µM
- GI50 (RPMI-8226 leukemia): 1.94 µM
- TGI (RPMI-8226 leukemia): 3.66 µM
- GI50 (MALME-3M melanoma): 1.99 µM
- TGI (MALME-3M melanoma): 3.66 µM
- GI50 (K-562 leukemia): 2.51 µM
- TGI (K-562 leukemia): 5.33 µM
- GI50 (IGROV1 ovarian): 14.2 µM
- TGI (IGROV1 ovarian): 27.4 µM
- GI50 (SK-OV-3 ovarian): 10.6 µM
- TGI (SK-OV-3 ovarian): 22.8 µM
- GI50 (MOLT-4 leukemia): 2.56 µM
- TGI (MOLT-4 leukemia): 6 µM
- GI50 (MDA-MB-468 breast): 4.92 µM
- TGI (MDA-MB-468 breast): 16 µM
- GI50 (SN12C renal): 13.6 µM
- TGI (SN12C renal): 26.7 µM
- GI50 (KM12 colon): 3.27 µM
- TGI (KM12 colon): 10.7 µM
- GI50 (HS 578T breast): 14 µM
- TGI (HS 578T breast): 27.2 µM
- GI50 (TK-10 renal): 12.7 µM
- TGI (TK-10 renal): 25.5 µM
- GI50 (UACC-62 melanoma): 2.77 µM
- TGI (UACC-62 melanoma): 7.86 µM
- GI50 (BT-549 breast): 10.7 µM
- TGI (BT-549 breast): 22.8 µM
- GI50 (SK-MEL-28 melanoma): 5.35 µM
- TGI (SK-MEL-28 melanoma): 16.8 µM
- GI50 (RXF 393 renal): 3.43 µM
- TGI (RXF 393 renal): 8.75 µM
- GI50 (NCI-H226 lung): 7.96 µM
- TGI (NCI-H226 lung): 20.2 µM
- GI50 (EKVX NSCLC): 14.7 µM
- TGI (EKVX NSCLC): 28.1 µM
- GI50 (OVCAR-8 ovarian): 11.5 µM
- TGI (OVCAR-8 ovarian): 24 µM
- GI50 (SK-MEL-2 melanoma): 4.1 µM
- TGI (SK-MEL-2 melanoma): 15.8 µM
- GI50 (PC-3 prostate): 4.18 µM
- TGI (PC-3 prostate): 13.7 µM
- GI50 (M14 melanoma): 1.89 µM
- TGI (M14 melanoma): 3.51 µM
- GI50 (HOP-92 NSCLC): 14.7 µM
- TGI (HOP-92 NSCLC): 28.1 µM
- GI50 (OVCAR-4 ovarian): 12.9 µM
- TGI (OVCAR-4 ovarian): 25.7 µM
- GI50 (T-47D breast): 5.64 µM
- TGI (T-47D breast): 19.7 µM
- GI50 (HCT-116 colon): 5.26 µM
- TGI (HCT-116 colon): 17.5 µM
- GI50 (NCI-H23 lung): 10.6 µM
- TGI (NCI-H23 lung): 22.6 µM
- GI50 (HL-60(TB) leukemia): 1.93 µM
- TGI (HL-60(TB) leukemia): 3.39 µM
- GI50 (NCI-H322M lung): 6.11 µM
- TGI (NCI-H322M lung): 18.4 µM
- GI50 (LOX IMVI melanoma): 4.94 µM
- TGI (LOX IMVI melanoma): 17 µM
- GI50 (MDA-MB-435 melanoma): 7.19 µM
- TGI (MDA-MB-435 melanoma): 19.5 µM
- GI50 ([…]-0 renal): 4.92 µM
- TGI (786-0 renal): 15.7 µM
- GI50 (DU-145 prostate): 12.8 µM
- TGI (DU-145 prostate): 25.9 µM
- GI50 (HCT-15 colon): 2.05 µM
- TGI (HCT-15 colon): 3.96 µM
- GI50 (OVCAR-3 ovarian): 9.12 µM
- TGI (OVCAR-3 ovarian): 21.3 µM
- GI50 (UACC-257 melanoma): 1.97 µM
- TGI (UACC-257 melanoma): 3.56 µM
- GI50 (MCF7 breast): 1.65 µM
- TGI (MCF7 breast): 7.98 µM
- GI50 (HT29 colon): 2.2 µM
- TGI (HT29 colon): 4.16 µM
- GI50 (MDA-MB-231 breast): 11.5 µM
- TGI (MDA-MB-231 breast): 24 µM
- GI50 (OVCAR-5 ovarian): 8.67 µM
- TGI (OVCAR-5 ovarian): 21 µM
- GI50 (HOP-62 NSCLC): 12.9 µM
- TGI (HOP-62 NSCLC): 25.7 µM
- GI50 (A549 NSCLC): 10.9 µM
- TGI (A549 NSCLC): 23.7 µM
